Results reported in patent EP4792822A1, “USE OF PEPTIDE AMIDE COMPOUND IN PREPARATION OF DRUG FOR […] AND VOMITING” (Haisco Pharmaceutical Group Co., Ltd., priority 2023, dated 2025).

Tested on: subjects undergoing elective laparoscopic abdominal or gynaecological surgery under general anaesthesia
Experiment: Example 3: placebo-controlled dose study of compound 1 injection for the prevention of postoperation nausea and vomiting
Format: in vivo, patients
Details: for Complete response (CR) within 24 h after surgery: single intravenous bolus; for Significant nausea within 24 h after surgery: VAS score ≥ 4 cm; for subject satisfaction scores for PONV / time to the first occurrence of emesis (vomiting or retching) or administration of rescue treatment within 24 h after surgery: mean ± standard deviation
Method: Study period: Treatment duration: 24 h after surgery; Follow-up duration: 48 h after surgery
Protocol: This study was a multicentre, randomised, double-blind, placebo-controlled study. About 200 subjects undergoing elective laparoscopic abdominal or gynaecological surgery under general anaesthesia were planned to be enrolled and randomised at a 1 : 1 : 1 : 1 ratio into the compound 1-60 µg group (50 subjects), the compound 1-120 µg group (50 subjects), the compound 1-180 µg group (50 subjects), and the placebo group (50 subjects).
A single dose of the study drug was administered within 15 min before the end of surgery. The dosing regimen is as follows: Compound 1-60 µg group: A single dose of 60 µg of compound 1 injection was administered within 15 min before the end of surgery, via intravenous bolus injection, with an intravenous bolus injection time of not less than 30 s.
Compound 1-120 µg group: A single dose of 120 µg of compound 1 injection was administered within 15 min before the end of surgery, via intravenous bolus injection, with an intravenous bolus injection time of not less than 30 s.
Compound 1-180 µg group: A single dose of 180 µg of compound 1 injection was administered within 15 min before the end of surgery, via intravenous bolus injection, with an intravenous bolus injection time of not less than 30 s.
Placebo group: A single dose of placebo was administered within 15 min before the end of surgery, via intravenous bolus injection, with an intravenous bolus injection time of not less than 30 s.
Primary efficacy endpoint: Complete response (CR) rate at 24 h after surgery (CR is defined as no vomiting or retching and no use of rescue medication within 24 h after surgery).
Secondary efficacy endpoints: Proportion of subjects experiencing nausea after surgery; proportion of subjects experiencing significant nausea after surgery (significant nausea is defined as a VAS score ≥ 4 cm); proportion of subjects experiencing vomiting after surgery (vomiting [even with expulsion of a minimal amount of gastric contents] or retching [muscular movement of vomiting without expulsion of gastric contents]); proportion of subjects using rescue medication after surgery; time to the first occurrence of emesis (vomiting or retching) or administration of rescue treatment within 24 h after surgery, whichever occurs first; cumulative dosage of analgesic agents within 24 h after surgery; and subject and investigator satisfaction scores for PONV.
Safety endpoints: Incidence and severity of adverse events; and vital signs, 12-lead ECG, physical examination, and laboratory examinations.
Subjects who met all inclusion criteria and none of the exclusion criteria received a single dose of compound 1 injection or placebo within 15 min before the end of surgery (defined as the completion of the last suture of the wound).
The use of any antiemetic agents or agents with antiemetic effects, other than the study drug and rescue medications specified in the protocol, was prohibited from 24 h before the start of surgery (defined as the start of skin incision) to 24 h after the end of surgery. Prophylactic antiemetic treatment was prohibited.
Within 24 h after the end of surgery, if the subject experienced ≥ 1 episode of vomiting, retching, or nausea and complained of requiring antiemetic treatment, the subject received rescue antiemetic agents specified in the protocol after assessment by the investigator (tropisetron was the preferred rescue antiemetic agent; it was recommended that an initial intravenous dose of 2.5 mg be administered, followed by additional doses as needed, not to exceed 10 mg within 24 h). If tropisetron was insufficiently effective, other agents were used by the investigator in accordance with routine clinical practice.
Within 30 min after the end of surgery, a PCA pump containing morphine hydrochloride injection was initiated. Subjects self-administered analgesia by pressing the PCA pump when experiencing pain. […]

[1] = Example 3, compared with placebo

CC(=O)N1CC2(CCN(C(=O)[C@@H](CCCCN)NC(=O)[C@@H](CC(C)C)NC(=O)[C@@H](Cc3ccccc3)NC(=O)[C@H](N)Cc3ccccc3)CC2)C1 [Compound 1, (2R)-N-[(1R)-1-(2-acetyl-2,7-diazaspiro[3.5]nonane-7-carbonyl)-5-amino-pentyl]-2-[[(2R)-2-[[(2R)-2-amino-3-phenyl-propionyl]amino]-3-phenylpropionyl]amino]-4-methyl-pentanamide]
investigator satisfaction scores for PONV (60 µg group): 8.9 ± 1.84
Nausea within 24 h after surgery (60 µg group (N = 49)): 18 (36.7) n (%)
Use of rescue medication within 24 h after surgery (60 µg group (N = 49)): 7 (14.3) n (%)
Vomiting within 24 h after surgery (60 µg group (N = 49)): 12 (24.5) n (%)
Complete response (CR) within 24 h after surgery (60 µg group (N = 49)): 36 (73.5) n (%)
Significant nausea within 24 h after surgery (60 µg group (N = 49)): 9 (18.4) n (%)
subject satisfaction scores for PONV (60 µg group): 9.0 ± 1.89
time to the first occurrence of emesis (vomiting or retching) or administration of rescue treatment within 24 h after surgery (60 µg group): 18.3109 ± 9.6700 h
CR rate at 24 h after surgery, comparison among dose groups (120 µg group): highest CR rate
investigator satisfaction scores for PONV (120 µg group): 8.9 ± 1.71
Nausea within 24 h after surgery (120 µg group (N = 49)): 11 (22.4) n (%)
Use of rescue medication within 24 h after surgery (120 µg group (N = 49)): 6 (12.2) n (%)
Vomiting within 24 h after surgery (120 µg group (N = 49)): 8 (16.3) n (%)
Complete response (CR) within 24 h after surgery (120 µg group (N = 49)): 40 (81.6) n (%)
Significant nausea within 24 h after surgery (120 µg group (N = 49)): 7 (14.3) n (%)
subject satisfaction scores for PONV (120 µg group): 9.1 ± 1.52
time to the first occurrence of emesis (vomiting or retching) or administration of rescue treatment within 24 h after surgery (120 µg group): 20.1119 ± 8.4192 h
investigator satisfaction scores for PONV (180 µg group): 9.0 ± 1.39
Nausea within 24 h after surgery (180 µg group (N = 50)): 16 (32.0) n (%)
Use of rescue medication within 24 h after surgery (180 µg group (N = 50)): 8 (16.0) n (%)
Vomiting within 24 h after surgery (180 µg group (N = 50)): 9 (18.0) n (%)
Complete response (CR) within 24 h after surgery (180 µg group (N = 50)): 39 (78.0) n (%)
Significant nausea within 24 h after surgery (180 µg group (N = 50)): 11 (22.0) n (%)
subject satisfaction scores for PONV (180 µg group): 9.0 ± 1.65
time to the first occurrence of emesis (vomiting or retching) or administration of rescue treatment within 24 h after surgery (180 µg group): 19.7203 ± 8.7225 h
TEAEs leading to study withdrawal or death (Example 3): no TEAEs leading to study withdrawal or death were observed
TESAEs (treatment-emergent serious adverse events) (Example 3): No TESAEs (treatment-emergent serious adverse events) occurred
overall safety (Example 3): good overall safety
severity of TEAEs and ADRs (Example 3, all TEAEs and ADRs): Grade 1-2
incidence of ADRs [1]: slightly higher than that in the placebo group
overall incidence of TEAEs [1]: lower than that in the placebo group
proportion of subjects experiencing nausea, severe nausea, vomiting, and using rescue medication within 24 h after surgery, compared with placebo (each dose group): lower than that in the placebo group
complete response (CR) rate at 24 h after surgery, compared with placebo (each dose group (60, 120, 180 µg), P < 0.05): higher than that in the placebo group
PONV satisfaction scores of investigators, compared with placebo (each dose group, P < 0.05): higher than those in the placebo group
PONV satisfaction scores of subjects, compared with placebo (each dose group, P < 0.05): higher than those in the placebo group
time to the first occurrence of emesis (vomiting or retching) or administration of rescue treatment within 24 h after surgery, compared with placebo (each dose group, P < 0.05): later than that in the placebo group
